In data set [1] the test system is MDA-MB-436. As to the kind of experiment: Combined use with combination drug, matrix study, Bliss Independence model (Cell Titer Glo, 7 days). Type of data set: cell-based. As to the method:
(§1) DLD-1 colorectal adenocarcinoma cells, DLD-1 BRCA2 (-/-) colorectal adenocarcinoma cells, SHP-77 human small cell lung cancer cells, NCI-H82 human small cell lung cancer cells, LNCAP prostate cancer cells, KURAMOCHI human ovarian cancer cells, A2780 human ovarian cancer cells, and NCI-H23 non-small cell lung cancer cells were cultured in a 1640 medium containing 10% fetal bovine serum. SKOV3 human ovarian cancer cells were cultured in a McCoy's 5A (modified) medium containing 10% fetal bovine serum. OVCAR3 ovarian cancer cells were cultured in a 1640 medium containing 20% fetal bovine serum and 10 µg/mL bovine insulin. MDA-MB-436 breast cancer cells (natural BRCA1 mutation) and A549 non-small cell lung cancer cells were cultured in a DMEM medium containing 10% fetal bovine serum. Capan-1 human pancreatic cancer cells (natural BRCA2 mutation) were cultured in an IMDM medium containing 20% fetal bovine serum. The cells were all cultured at 37 °C with 5% CO2. Cells at the logarithmic growth phase were available for the experiment.
(§2) 100 µL of the cell medium was added to rows A and H and columns 1 and 12 of a 96-well cell culture plate. Cultured cells were resuspended (adherent cells were digested with trypsin) and counted to give information on cell density and viability. The dilution ratio of the resuspended cells required for inoculating a fixed number of cells into 80 µL of the medium in each culture well was calculated based on the cell density information. After the resuspended cells were diluted with the corresponding medium, 80 µL of the diluted cells were transferred to columns 2-11 of rows B-G of a 96-well cell culture plate using an Eppendorf multi-channel pipette (60 wells in total for each plate). The cell culture plate was incubated overnight in an incubator at 37 °C with 5% CO2.
(§3) The test compound and the combination compound were dissolved in DMSO to give a 10 mM solution for later use. In the experiment, the compound was further diluted to the corresponding concentration according to the concentration designed in the experiment, and based on this concentration, serial gradient dilution was performed. Matrix study was performed at 8 or 7 dose concentrations of the test compound (the lowest dose concentration was 0, and other specific concentration values were shown in FIG. 1) and 7 or 8 dose concentrations of the combination compound (the lowest dose concentration was 0, and other specific concentration values were shown in FIG. 1). 10 µL of each of the diluted combination compound and test compound was added to the corresponding cell plate well, such that the final concentration of DMSO was 0.25%. The test compound and the cells were incubated in an incubator at 37 °C with 5% CO2 for another 7 days, Cell Titer Glo was added at 50 µL/well, and the luminescence value of each well was read using an Envision microplate reader.
(§4) The luminescence value of the well containing only the cell medium was taken as the background (RLUbackground, corresponding cell survival rate to be 0%), the cell well containing only 0.25% DMSO without the compound was taken as the maximum signal (RLUDMSO, corresponding cell survival rate to be 100%), and the luminescence values of the remaining wells containing cells and compounds at different concentrations were taken as RLUsample. The survival rate of each cell well was calculated as follows: Survival rate (%) = (RLUsample−RLUbackground)/(RLUDMSO−RLUbackground) × 100% [formula]
(§5) The interaction between drugs (synergistic, independent, or antagonistic) was statistically analyzed by the Bliss Independence model using Combenefit software (Bliss, C.I., Bacteriol. Rev., 1956, 20, 243-258). The model assumes that each drug acts independently. The theoretical expected action curve of the combination was calculated from the following equation: Bliss effect = effect A + effect B−effect A × effect B [formula] wherein effect A and effect B are the effects of drugs A and B alone at specific concentrations. […]

Data set [2] relates to DLD1. The data set is described as above. Type of data set: cell-based. The following applies: combination with SN38 (Topoisomerase I inhibitor). As to the method:
as §1, §2, §3, §4, §5

In data set [3] the test system is NCIH23. Described as above. Type of data set: cell-based. As to the method: as §1, §2, §3, §4, §5
In data set [4] the test system is human colorectal adenocarcinoma DLD1 BRCA2-/- cells. As to the kind of experiment: Efficacy of combined use with olaparib in DLD1 BRCA2-/- xenograft tumor model. Type of data set: in vivo, NU/NU nude mice. The following applies: 10 mg/kg QD intragastric in combination with 50 mg/kg olaparib QD. From the text:
The anti-tumor activity of the sodium salt of compound I used in combination with olaparib (MCE, 136925) was studied using a DLD1 BRCA2-/- subcutaneous tumor model. 32 female NU/NU nude mice (6-8 weeks old, Beijing Vital River Laboratory Animal Technology Co., Ltd.) were subcutaneously inoculated with 1 × 10^7 human colorectal adenocarcinoma DLD1 BRCA2-/- cells (Horizon- HD105-007). When the tumors grew to 80-100 mm^3, the mice were randomly divided into four groups with eight mice per group: a first group treated with vehicle control (QD) by intragastric administration, a second group treated with a 10 mg/kg solution of the sodium salt of compound I (QD) by intragastric administration, a third group treated with a 50 mg/kg olaparib solution (QD) by intragastric administration, and a fourth group treated with a 10 mg/kg solution of the sodium salt of compound I (QD) by intragastric administration and a 50 mg/kg olaparib solution (QD) by intragastric administration. The vehicle of olaparib was a solution containing 10% DMSO, 50% 2-hydroxypropyl-β-cyclodextrin (Aladdin-F2223139, 60% aqueous solution), and 40% water, the vehicle of the sodium salt of compound I was 10% (w/v) Vitamin E TPGS (Hanhong Chemical-BH-GN0100619-22 1101) aqueous solution, and the vehicle of the vehicle control group was a mixture of the vehicle of olaparib and the vehicle of the sodium salt of compound I (mixed at a volume ratio of 1:1). Mice had free access to food and water throughout the experiment.
Tumor diameters were measured twice weekly using a vernier caliper. The tumor volume (V) was calculated using the following formula: V = 0.5a × b^2, wherein a and b represent the long diameter and short diameter of the tumor, respectively.
Mouse body weight was measured twice weekly.
Two way ANOVA was used to compare the differences in tumor growth trend among groups, and a significant difference was considered when p < 0.05.

Regarding `COc1ccc(Cl)cc1-c1cc(C)ncc1C(=O)Nc1nc2ncc(-c3ccc(C#N)cc3)nc2s1.[Na]` [Sodium salt of compound I, Sodium Salt of 4-(5-Chloro-2-methoxyphenyl)-N-[6-(4-cyanophenyl)thiazolo[4,5-b]pyrazin-2-yl]-6-methylnicotinamide], the Combined effect entry in data set [1] (combination with AZD5305 (PARP inhibitor)), in data set [1] (combination with AZD7648 (DNA-PK inhibitor)), in data set [1] (combination with Niraparib (PARP inhibitor)), in data set [1] (combination with Olaparib (PARP inhibitor)), in data set [2] and in data set [3] (combination with RP3500 (ATR inhibitor)) was “Synergistic” each time. Further, the Combined effect entry in data set [3] (combination with Talazoparib (PARP inhibitor)) is “Synergistic”. The “anti-tumor effect of combination with olaparib” value in data set [4] was “strong synergistic anti-tumor effect”. In addition, the tumor volume result in data set [4] (versus either single drug group) is listed as “significantly lower”. Besides, the safety result in data set [4] (condition of mice, body weight) is “good safety”.

Values taken from patent EP4744665A1, “COMBINATION OF POLQ INHIBITOR COMPOUND AND ANTI-CANCER THERAPEUTIC AGENT OR RADIOTHERAPY” (Simcere Zaiming Pharmaceutical Co., Ltd., priority 2023, dated 2025).
